Source: US9464084B2, “P2X7 modulators” (Janssen Pharmaceutica NV, priority 2013, dated 2016)

Target: P2X7 (Homo sapiens (Human), UniProt Q99572)
Assay: P2X7 antagonism in human PBMCs (LPS + Bz-ATP induced IL-1β release, ELISA);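 also: PBMCs from donor human blood, with a further 1.5 h incubation of the cells in the assay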
Format: cell-based
Conditions: compound 1 μM, LPS 30 ng/ml, Bz-ATP 0.5 mM
Protocol: Human blood was collected using a blood donor program. PBMCs were isolated from blood using a Ficoll density gradient technique. Briefly, blood was laid on Ficoll solution and centrifuged at RT for 20 minutes at 2000 rpm. The buffy layer (between red blood cells and plasma) was carefully collected by aspiration, washed with PBS and centrifuged again at 1500 rpm for 15 minutes. The resulting cell pellet was washed and plated on 96 well-plates for experiments. For the Mouse/Human Whole Blood experiments, 150 μl of either mouse or human blood was platted on 96 well-plates. Lipopolysaccharide (LPS) (30 ng/ml) was added to each well and incubated for 1 hour. Test compounds were then added and incubated for 30 minutes. The P2X7 agonist, 2′(3′)-O-(4-benzoylbenzoyl) adenosine 5′ triphosphate (Bz-ATP) was then added at a final concentration of 0.5 mM (PBMC) or 1 mM (blood). Cells were incubated for an additional 1.5 hours. At that point, supernatant was collected and stored for IL-1β assay using manufacturer's protocol for enzyme-linked immunosorbent assay (ELISA). Data was expressed as percent control, where control is defined as the difference in IL-1β release in LPS+Bz-ATP samples and LPS only samples. Data was plotted as response (% control) versus concentration to generate IC50 values.

Sequence of P2X7 (Q99572 whole entry): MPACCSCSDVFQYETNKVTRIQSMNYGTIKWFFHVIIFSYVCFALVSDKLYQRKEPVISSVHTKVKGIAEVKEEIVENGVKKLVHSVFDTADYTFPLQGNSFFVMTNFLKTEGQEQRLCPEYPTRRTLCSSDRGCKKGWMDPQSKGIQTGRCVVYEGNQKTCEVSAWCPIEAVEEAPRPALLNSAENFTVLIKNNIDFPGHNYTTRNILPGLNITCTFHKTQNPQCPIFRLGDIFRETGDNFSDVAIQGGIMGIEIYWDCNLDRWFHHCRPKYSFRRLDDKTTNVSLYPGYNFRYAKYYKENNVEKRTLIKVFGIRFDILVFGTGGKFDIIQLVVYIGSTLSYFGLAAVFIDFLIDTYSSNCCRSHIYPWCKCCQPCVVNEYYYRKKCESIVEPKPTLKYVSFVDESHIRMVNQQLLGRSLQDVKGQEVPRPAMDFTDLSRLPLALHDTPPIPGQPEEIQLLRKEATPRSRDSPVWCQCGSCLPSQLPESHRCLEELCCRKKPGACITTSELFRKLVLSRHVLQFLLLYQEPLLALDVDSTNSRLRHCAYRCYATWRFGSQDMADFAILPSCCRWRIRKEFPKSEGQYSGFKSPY

PBMC 1 μM (% control) | SMILES
99.7 | O=C(c1c(F)cccc1Cl)N1CCc2c(-c3ccccc3)n[nH]c2C1 [Example 325, (2-chloro-6-fluorophenyl)(3-phenyl-4,5-dihydro-1H-pyrazolo[3,4-c]pyridin-6(7H)-yl)methanone]
98.7 | O=C(c1cccc(C(F)(F)F)c1Cl)N1CCc2c(ncn2-c2cc(F)cc(F)c2)C1 [Example 7, (2-Chloro-3-(trifluoromethyl)phenyl)(1-(3,5-difluorophenyl)-6,7-dihydro-1H-imidazo[4,5-c]pyridin-5(4H)-yl)methanone]
100.4 | O=C(c1c(Cl)cccc1Cl)N1CCc2c(-c3ccccc3)n[nH]c2C1 [Example 324, (2,6-dichlorophenyl)(3-phenyl-4,5-dihydro-1H-pyrazolo[3,4-c]pyridin-6(7H)-yl)methanone]

Same assay, conditions: compound 10 μM, LPS 30 ng/ml, Bz-ATP 0.5 mM

SMILES | PBMC 10 μM (% control)
C[C@H]1c2nnn(-c3ncccn3)c2CCN1C(=O)c1cccc(C(F)(F)F)c1Cl (single isomer, unassigned) [Example 87, (4S*)-5-{[2-Chloro-3-(trifluoromethyl)phenyl]carbonyl}-4-methyl-1-pyrimidin-2-yl-4,5,6,7-tetrahydro-1H-[1,2,3]triazolo[4,5-c]pyridine] | 21.7
C[C@@H]1c2nnn(-c3ncc(F)cn3)c2CCN1C(=O)c1cccc(C(F)(F)F)c1Cl (single isomer, unassigned) [Example 158, (R*)-(2-Chloro-3-(trifluoromethyl)phenyl)(1-(5-fluoropyrimidin-2-yl)-4-methyl-6,7-dihydro-1H-[1,2,3]triazolo[4,5-c]pyridin-5(4H)-yl)methanone] | 1.1
CC1c2nnn(-c3ncccn3)c2CCN1C(=O)c1cccc(C(F)(F)F)c1Cl (single isomer, unassigned) [Example 88, (4R*)-5-{[2-Chloro-3-(trifluoromethyl)phenyl]carbonyl}-4-methyl-1-pyrimidin-2-yl-4,5,6,7-tetrahydro-1H-[1,2,3]triazolo[4,5-c]pyridine] | 13.3
C[C@H]1c2ncn(-c3ccccn3)c2CCN1C(=O)c1cccc(C(F)(F)F)c1Cl (single isomer, unassigned) [Example 45, (4 S*)-5-{[2-Chloro-3-(trifluoromethyl)phenyl]carbonyl}-4-methyl-1-pyridin-2-yl-4,5,6,7-tetrahydro-1H-imidazo[4,5-c]pyridine] | 29.4
C[C@H]1c2ncn(-c3ccccn3)c2CCN1C(=O)c1cccc(C(F)(F)F)c1F (single isomer, unassigned) [Example 43, (4 S*)-5-{[2-Fluoro-3-(trifluoromethyl)phenyl]carbonyl}-4-methyl-1-pyridin-2-yl-4,5,6,7-tetrahydro-1H-imidazo[4,5-c]pyridine] | 77.8
C[C@H]1c2ncn(-c3ccc(F)cn3)c2CCN1C(=O)c1cccc(C(F)(F)F)c1Cl (stereo in doubt) [Example 41] | 40.5
COc1ccnc(-n2nnc3c2CCN(C(=O)c2cccc(C(F)(F)F)c2Cl)[C@@H]3C)c1 (single isomer, unassigned) [Example 152, (S*)-(2-Chloro-3-(trifluoromethyl)phenyl)(1-(4-methoxypyridin-2-yl)-4-methyl-6,7-dihydro-1H-[1,2,3]triazolo[4,5-c]pyridin-5(4H)-yl)methanone] | 15.4

Now from value to compound:

PBMC 10 μM (% control) | SMILES
3.2 | C[C@H]1Cc2c(nnn2-c2ncc(F)cn2)CN1C(=O)c1cccc(C(F)(F)F)c1 [Example 304, (S)-(1-(5-fluoropyrimidin-2-yl)-6-methyl-6,7-dihydro-1H-[1,2,3]triazolo[4,5-c]pyridin-5(4H)-yl)(3-(trifluoromethyl)phenyl)methanone]
−5.1 | Cc1ccnc(-n2nnc3c2CCN(C(=O)c2cccc(Cl)c2Cl)C3C)c1 (centres unmarked) [Example 237, (2,3-dichlorophenyl)(4-methyl-1-(4-methylpyridin-2-yl)-6,7-dihydro-1H-[1,2,3]triazolo[4,5-c]pyridin-5(4H)-yl)methanone]
−1.2 | C[C@H]1Cc2c(nnn2-c2ncc(F)cn2)CN1C(=O)c1ccnc(C(F)(F)F)c1Cl (single isomer, unassigned) [Example 183, (R*)-(3-chloro-2-(trifluoromethyl)pyridin-4-yl)(1-(5-fluoropyrimidin-2-yl)-6-methyl-6,7-dihydro-1H-[1,2,3]triazolo[4,5-c]pyridin-5(4H)-yl)methanone]
116.4 | C[C@H]1c2nnn(-c3ncc(F)cn3)c2CCN1C(=O)c1ccnc(C(F)(F)F)c1F (single isomer, unassigned) [Example 229, (S*)-(3-fluoro-2-(trifluoromethyl)pyridin-4-yl)(1-(5-fluoropyrimidin-2-yl)-4-methyl-6,7-dihydro-1H-[1,2,3]triazolo[4,5-c]pyridin-5(4H)-yl)methanone]
−1.0 | CC1Cc2c(nnn2-c2cnccn2)CN1C(=O)c1cccc(C(F)(F)F)c1Cl (centres unmarked) [Example 209, 5-{[2-Chloro-3-(trifluoromethyl)phenyl]carbonyl}-6-methyl-1-pyrazin-2-yl-4,5,6,7-tetrahydro-1H-[1,2,3]triazolo[4,5-c]pyridine]
74.3 | COCCn1ccc(-n2nnc3c2CCN(C(=O)c2cccc(C(F)(F)F)c2Cl)[C@@H]3C)n1 (single isomer, unassigned) [Example 248, (R*)-(2-Chloro-3-(trifluoromethyl)phenyl)(1-(1-(2-methoxyethyl)-1H-pyrazol-3-yl)-4-methyl-6,7-dihydro-1H-[1,2,3]triazolo[4,5-c]pyridin-5(4H)-yl)methanone]
17.4 | C[C@H]1Cc2c(nnn2-c2cnccn2)CN1C(=O)c1cccc(C(F)(F)F)c1Cl (single isomer, unassigned) [Example 212, (6S*)-5-{[2-Chloro-3-(trifluoromethyl)phenyl]carbonyl}-6-methyl-1-pyrazin-2-yl-4,5,6,7-tetrahydro-1H-[1,2,3]triazolo[4,5-c]pyridine]
−11.2 | CC1Cc2c(nnn2-c2ccccc2)CN1C(=O)c1cccc(C(F)(F)F)c1Cl (centres unmarked) [Example 290, (2-chloro-3-(trifluoromethyl)phenyl)(6-methyl-1-phenyl-6,7-dihydro-1H-[1,2,3]triazolo[4,5-c]pyridin-5(4H)-yl)methanone]
−3.7 | Cc1ccnc(-n2nnc3c2CCN(C(=O)c2cccc(C(F)(F)F)c2Cl)[C@@H]3C)c1 (single isomer, unassigned) [Example 185, (R*)-(2-chloro-3-(trifluoromethyl)phenyl)(4-methyl-1-(4-methylpyridin-2-yl)-6,7-dihydro-1H-[1,2,3]triazolo[4,5-c]pyridin-5(4H)-yl)methanone]
98.1 | C[C@H]1c2nnn(-c3ncc(F)cn3)c2CCN1C(=O)c1ccnc(C(F)(F)F)c1Cl (single isomer, unassigned) [Example 164, (S*)-(3-chloro-2-(trifluoromethyl)pyridin-4-yl)(1-(5-fluoropyrimidin-2-yl)-4-methyl-6,7-dihydro-1H-[1,2,3]triazolo[4,5-c]pyridin-5(4H)-yl)methanone]
